Counter-ions that a name gives are not always drawn.

Sequence of PRMT5/MEP50 complex (O14744 whole entry): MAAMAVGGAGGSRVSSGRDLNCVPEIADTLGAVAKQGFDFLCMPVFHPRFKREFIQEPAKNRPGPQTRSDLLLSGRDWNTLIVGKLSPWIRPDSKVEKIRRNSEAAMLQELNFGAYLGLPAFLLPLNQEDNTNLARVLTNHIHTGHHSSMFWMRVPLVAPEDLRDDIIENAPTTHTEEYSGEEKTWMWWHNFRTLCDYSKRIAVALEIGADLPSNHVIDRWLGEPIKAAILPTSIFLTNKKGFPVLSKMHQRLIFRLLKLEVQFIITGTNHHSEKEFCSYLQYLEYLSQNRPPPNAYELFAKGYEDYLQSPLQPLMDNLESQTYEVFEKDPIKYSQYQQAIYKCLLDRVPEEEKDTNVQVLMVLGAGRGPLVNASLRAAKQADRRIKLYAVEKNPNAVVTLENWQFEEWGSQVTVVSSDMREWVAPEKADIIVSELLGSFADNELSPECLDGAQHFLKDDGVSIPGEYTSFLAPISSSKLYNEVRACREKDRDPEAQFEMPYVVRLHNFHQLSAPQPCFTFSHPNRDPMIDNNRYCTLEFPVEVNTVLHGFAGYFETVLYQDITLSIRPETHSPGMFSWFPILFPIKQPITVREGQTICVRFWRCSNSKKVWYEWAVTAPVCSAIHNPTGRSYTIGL
Sequence of PRMT5/MEP50 complex (Q9BQA1 whole entry partner): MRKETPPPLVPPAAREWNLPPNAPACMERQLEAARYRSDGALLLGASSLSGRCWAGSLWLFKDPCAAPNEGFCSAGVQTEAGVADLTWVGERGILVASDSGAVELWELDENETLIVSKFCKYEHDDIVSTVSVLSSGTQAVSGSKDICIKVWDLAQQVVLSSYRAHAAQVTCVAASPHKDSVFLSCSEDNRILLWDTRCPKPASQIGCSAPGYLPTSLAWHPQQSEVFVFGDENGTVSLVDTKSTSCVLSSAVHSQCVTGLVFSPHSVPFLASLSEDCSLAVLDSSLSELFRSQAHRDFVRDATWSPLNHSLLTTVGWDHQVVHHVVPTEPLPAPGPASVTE

This test has as its target PRMT5/MEP50 complex (Homo sapiens (Human), UniProt O14744). Description: Biochemical assay: PRMT5/MEP50 methylation of histone H4 based AcH4-23, SPA readout. The conditions noted are these: PRMT5/MEP50 2.5 nM, 300 nM AcH4-23, 1 μM 3H-SAM. The procedure: Biochemical Assay Protocol
Compounds were solubilized and 3-fold diluted in 100% DMSO. […] Standard reactions were performed in a total volume of 30 μl in assay buffer, with 300 nM histone H4 based AcH4-23 (Anaspec: AS-65002) as substrate. To this was added the PRMT5/MEP50 complex diluted to provide a final assay concentration of 2.5 nM and the compounds were allowed to preincubate for 20 minutes at 37° C. The reaction was initiated by adding S-[3H-methyl]-adenosyl-L-methionine (PerkinElmer: NET155001MC) to final concentration of 1 μM. Following a 30 minutes incubation at 37° C., the reaction was stopped by adding 25 μL of 8M Guanidine HCl. Prepare streptavidin YSI SPA beads (Perkinelmer: RPNQ0012) at 0.3 mg/mL in assay buffer. To each reaction, add 150 μL of SPA beads suspension, and incubated while shaking at room temperature for 30 minutes. The plate was centrifuged at 100×g for 30 second before reading in a scintillation counter. IC50 values were determined by fitting the data to the standard 4 parameters with Hill Slope using GraphPad Prism software.
Broadly, the IC50 is the concentration at which inhibition is half-maximal. A low value points to greater potency. `Cc1ncnc2c1ccn2[C@@H]1O[C@H]([C@@H]2OCC(F)(F)c3ccccc32)[C@@H](O)[C@H]1O` [Example 76, (2S,3S,4R,5R)-2-((R)-4,4-difluoroisochroman-1-yl)-5-(4-methyl-7H-pyrrolo[2,3-d]pyrimidin-7-yl)tetrahydrofuran-3,4-diol] showed an IC50 of 81 nM.
Then `Nc1ncnc2c1ccn2[C@@H]1O[C@H]([C@@H]2OC(O)Cc3cc(Cl)ccc32)[C@@H](O)[C@H]1O` (stereo partly drawn) [Example 43, (2R,3R,4S,5S)-2-(4-amino-7H-pyrrolo[2,3-d]pyrimidin-7-yl)-5-((1R)-6-chloro-3-hydroxyisochroman-1-yl)tetrahydrofuran-3,4-diol], with 19 nM; and `Nc1ncnc2c1ccn2[C@@H]1O[C@H]([C@H]2OCCc3cc(Cl)sc32)[C@@H](O)[C@H]1O` [Example 91, (2R,3R,4S,5S)-2-(4-amino-7H-pyrrolo[2,3-d]pyrimidin-7-yl)-5-((R)-2-chloro-4,7-dihydro-5H-thieno[2,3-c]pyran-7-yl)tetrahydrofuran-3,4-diol], with 554 nM; and `Cc1ncnc2c1ccn2[C@@H]1O[C@H]([C@H]2OCCc3cc(Cl)ccc32)[C@@H](O)[C@H]1O` [Example 80, (2S,3S,4R,5R)-2-((S)-6-chloroisochroman-1-yl)-5-(4-methyl-7H-pyrrolo[2,3-d]pyrimidin-7-yl)tetrahydrofuran-3,4-diol], with 1010 nM.
Then `Cc1ncnc2c1ccn2[C@@H]1O[C@H]([C@@H]2OCCc3c2ccc(F)c3F)[C@@H](O)[C@H]1O` [Example 79, (2S,3S,4R,5R)-2-((R)-5,6-difluoroisochroman-1-yl)-5-(4-methyl-7H-pyrrolo[2,3-d]pyrimidin-7-yl)tetrahydrofuran-3,4-diol], with 8.4 nM; and `COC1Cc2cc(Cl)ccc2[C@H]([C@H]2O[C@@H](n3ccc4c(N)ncnc43)[C@H](O)[C@@H]2O)O1` (stereo partly drawn) [Example 42, (2R,3R,4S,5S)-2-(4-amino-7H-pyrrolo[2,3-d]pyrimidin-7-yl)-5-((1R)-6-chloro-3-methoxyisochroman-1-yl)tetrahydrofuran-3,4-diol], with 428 nM; and `Nc1ncnc2c1ccn2[C@@H]1O[C@H]([C@@H]2OCC(F)(F)c3ccccc32)[C@@H](O)[C@H]1O` [Example 78, (2R,3R,4S,5S)-2-(4-amino-7H-pyrrolo[2,3-d]pyrimidin-7-yl)-5-((R)-4,4-difluoroisochroman-1-yl)tetrahydrofuran-3,4-diol], with 6.7 nM.
Then `Cc1ncnc2c1ccn2[C@@H]1O[C@H]([C@@H]2OCc3ccc(Cl)cc32)[C@@H](O)[C@H]1O` [Example 15, (2S,3S,4R,5R)-2-((R)-6-chloro-1,3-dihydroisobenzofuran-1-yl)-5-(4-methyl-7H-pyrrolo[2,3-d]pyrimidin-7-yl)tetrahydrofuran-3,4-diol], with 1 nM; and `Nc1ncnc2c1ccn2[C@@H]1O[C@H]([C@H]2OCc3cc(Cl)ccc32)[C@@H](O)[C@H]1O` [Example 1B, (2R,3R,4S,5S)-2-(4-amino-7H-pyrrolo[2,3-d]pyrimidin-7-yl)-5-((S)-5-chloro-1,3-dihydroisobenzofuran-1-yl)tetrahydrofuran-3,4-diol], with 270 nM.
As to `Nc1ncnc2c1ccn2[C@@H]1O[C@H]([C@@H]2OC(=O)Cc3cc(Cl)ccc32)[C@@H](O)[C@H]1O` [Example 82, (R)-1-((2S,3S,4R,5R)-5-(4-amino-7H-pyrrolo[2,3-d]pyrimidin-7-yl)-3,4-dihydroxytetrahydrofuran-2-yl)-6-chloroisochroman-3-one], the IC50 turned out to be 585 nM. This IC50 is about 2.2-fold higher than that of the molecule before.
For `COC1Cc2cc(Cl)ccc2[C@H]([C@H]2O[C@@H](n3ccc4c(C)ncnc43)[C@H](O)[C@@H]2O)O1` (stereo partly drawn) [Example 44, (2S,3S,4R,5R)-2-((1R)-6-chloro-3-methoxyisochroman-1-yl)-5-(4-methyl-7H-pyrrolo[2,3-d]pyrimidin-7-yl)tetrahydrofuran-3,4-diol], half-maximal inhibition (IC50) was put at 606 nM.
The result for `Cc1ncnc2c1ccn2[C@@H]1O[C@H]([C@@H]2OC[C@H](F)c3cc(Cl)ccc32)[C@@H](O)[C@H]1O` [Example 94, (2R,3R,4S,5S)-2-(4-methylpyrrolo[2,3-d]pyrimidin-7-yl)-5-[(1R,4R)-6-chloro-4-fluoro-isochroman-1-yl]tetrahydrofuran-3,4-diol] reads 3.2 nM; that for `Cc1ncnc2c1ccn2[C@@H]1O[C@H]([C@@H]2OC(O)Cc3cc(Cl)ccc32)[C@@H](O)[C@H]1O` (stereo partly drawn) [Example 50, (2S,3S,4R,5R)-2-((1R)-6-chloro-3-hydroxyisochroman-1-yl)-5-(4-methyl-7H-pyrrolo[2,3-d]pyrimidin-7-yl)tetrahydrofuran-3,4-diol], 59 nM; that for `Nc1ncnc2c1ccn2[C@@H]1C[C@H]([C@H]2OC(=O)c3cc(Cl)ccc32)[C@@H](O)[C@H]1O` [Example 3B, (R)-3-((1S,2R,3S,4R)-4-(4-amino-6H-7I4-pyrrolo[2,3-d]pyrimidin-7-yl)-2,3-dihydroxycyclopentyl)-6-chloroisobenzofuran-1(3H)-one, hydrochloride], 1020 nM.
Then `Nc1ncnc2c1ccn2[C@@H]1C[C@H]([C@H]2OCc3cc(Cl)ccc32)[C@@H](O)[C@H]1O` [Example 2A, (1R,2S,3R,5S)-3-(4-amino-7H-pyrrolo[2,3-d]pyrimidin-7-yl)-5-((R)-5-chloro-1,3-dihydroisobenzofuran-1-yl)cyclopentane-1,2-diol], with 680 nM; and `Cc1cc2c(cc1Cl)CCO[C@H]2[C@H]1O[C@@H](n2ccc3c(C)ncnc32)[C@H](O)[C@@H]1O` [Example 99, (2S,3S,4R,5R)-2-((R)-6-chloro-7-methylisochroman-1-yl)-5-(4-methyl-7H-pyrrolo[2,3-d]pyrimidin-7-yl)tetrahydrofuran-3,4-diol], with 39.6 nM.
In the case of `Nc1ncnc2c1ccn2[C@@H]1O[C@H]([C@@H]2OCOCc3cc(Cl)ccc32)[C@@H](O)[C@H]1O` [Example 81, (2R,3R,4S,5S)-2-(4-amino-7H-pyrrolo[2,3-d]pyrimidin-7-yl)-5-((R)-7-chloro-1,5-dihydrobenzo[e][1,3]dioxepin-1-yl)tetrahydrofuran-3,4-diol], the midpoint of inhibition, the IC50, lay at 41.5 nM.
The result for `Cc1ncnc2c1ccn2[C@@H]1O[C@H]([C@@H]2OC[C@@H](F)c3cc(Cl)ccc32)[C@@H](O)[C@H]1O` [Example 92, (2S,3S,4R,5R)-2-((1R,4S)-6-chloro-4-fluoroisochroman-1-yl)-5-(4-methyl-7H-pyrrolo[2,3-d]pyrimidin-7-yl)tetrahydrofuran-3,4-diol] reads 20 nM; that for `Nc1ncnc2c1ccn2[C@@H]1O[C@H]([C@@H]2OC[C@@H](F)c3cc(Cl)ccc32)[C@@H](O)[C@H]1O` [Example 93, (2R,3R,4S,5S)-2-(4-aminopyrrolo[2,3-d]pyrimidin-7-yl)-5-[(1R,4S)-6-chloro-4-fluoro-isochroman-1-yl]tetrahydrofuran-3,4-diol], 14 nM; that for `Nc1ncnc2c1ccn2[C@@H]1O[C@H]([C@@H]2OCCc3c2ccc(F)c3F)[C@@H](O)[C@H]1O` [Example 77, (2R,3R,4S,5S)-2-(4-amino-7H-pyrrolo[2,3-d]pyrimidin-7-yl)-5-((R)-5,6-difluoroisochroman-1-yl)tetrahydrofuran-3,4-diol], 2.82 nM.
On to `Cc1ncnc2c1ccn2[C@@H]1O[C@H]([C@@H]2OCCCc3cc(Cl)ccc32)[C@@H](O)[C@H]1O` [Example 101, (2S,3S,4R,5R)-2-((R)-7-chloro-1,3,4,5-tetrahydrobenzo[c]oxepin-1-yl)-5-(4-methyl-7H-pyrrolo[2,3-d]pyrimidin-7-yl)tetrahydrofuran-3,4-diol], for which the IC50 came out at 1580 nM.
As to `Cc1cc2c(cc1Cl)CCO[C@H]2[C@H]1O[C@@H](n2ccc3c(N)ncnc32)[C@H](O)[C@@H]1O` [Example 100, (2R,3R,4S,5S)-2-(4-amino-7H-pyrrolo[2,3-d]pyrimidin-7-yl)-5-((R)-6-chloro-7-methylisochroman-1-yl)tetrahydrofuran-3,4-diol], half-maximal inhibition (IC50) was put at 5.6 nM.
Then `Nc1ncnc2c1ccn2[C@@H]1O[C@H]([C@@H]2OCCCc3cc(Cl)ccc32)[C@@H](O)[C@H]1O` [Example 102, (2R,3R,4S,5S)-2-(4-amino-6H-7I4-pyrrolo[2,3-d]pyrimidin-7-yl)-5-((R)-7-chloro-1,3,4,5-tetrahydrobenzo[c]oxepin-1-yl)tetrahydrofuran-3,4-diol, hydrochloride], with 6280 nM.

The values are drawn from patent publication US10711007B2, “Selective inhibitors of protein arginine methyltransferase 5 (PRMT5)” (Prelude Therapeutics, Incorporated, priority 2018, dated 2020).
